What was measured:
[1] = system: Plasmodium falciparum; experiment: ST_JUDE: Plasmodium falciparum 3D7 EC50 (uM) as measured by SYBR green dye; assay type: functional, organism-based
[2] = system: Plasmodium falciparum; experiment: ST_JUDE: Plasmodium falciparum K1 EC50 (uM) as measured by SYBR green dye; assay type: functional, organism-based

| SMILES | EC50 [1] | EC50 [2] |
| --- | --- | --- |
| CCN(CC)c1cc(C)nc(Nc2ccc(NS(=O)(=O)c3cc(C)ccc3OC)cc2)n1 | 4.17 µM | > 15 µM |
| COC(=O)c1c(S(=O)(=O)N2CCCC2)sc2c1CCN(Cc1c[nH]nc1-c1ccccc1)C2 | > 15 µM | > 15 µM |
| Cc1sc(NC(=O)CSc2ccc(Cl)cc2)nc1-c1ccccc1 | > 15 µM | > 15 µM |
| CCOC(=O)c1ccc(-n2[nH]c(-c3ccccc3)cc2=O)cc1 | > 15 µM | 8.96 µM |
| Cn1c(-c2ccccc2[N+](=O)[O-])[n+](C)c2ccccc21 | 7.38 µM | > 15 µM |
| CCOc1ccc(N2C(N)=NC(N)=NC2(C)C)cc1 | 0.238 µM | > 15 µM |
| COC(=O)Nc1ccc(S(=O)(=O)ON=C2C=C(C(C)(C)C)C(=O)C(C(C)(C)C)=C2)cc1 | 6.84 µM | 0.389 µM |
| CSc1cccc(NC(=O)C2c3ccccc3C(=O)N(CC(C)C)C2c2cccs2)c1 (configuration not stated) | 0.13 µM | 0.2 µM |
| Cc1ccc(NC(=O)c2ccc(Br)o2)c(Br)c1 | > 15 µM | > 15 µM |
| CCOc1ccc2nc(C)cc(Nc3cccc(OC)c3)c2c1 | 3.41 µM | 6.76 µM |
| CCOC(=O)C1=C(C)N=c2s/c(=C\c3ccc(O)cc3)c(=O)n2C1c1ccc(OC)c(OCC)c1 (configuration not stated) | 0.77 µM | > 15 µM |
| COC(=O)c1c(S(=O)(=O)N2CCCN(C)CC2)sc2c1CCN(CC(C)c1ccccc1)C2 (configuration not stated) | > 15 µM | > 15 µM |
| CCCCCCOC(=O)c1[nH]c2c(c1C)C(=O)CC(c1ccco1)C2 (configuration not stated) | 2.52 µM | 2.03 µM |
| CN(C)CCNc1c2c(nc3ccccc13)CCC2 | 3.96 µM | > 15 µM |
| CCN(CC)CC/N=c1\cc(-c2ccc(OC)c(OC)c2)oc2ccc(Cl)cc12.[O-][Cl+3]([O-])([O-])O | 0.543 µM | 5.14 µM |
| Cc1cc(C)c(C)c(OCCCCCCN2CCCC2)c1 | > 15 µM | > 15 µM |
| O=C(Cc1ccccc1)N(Cc1cccnc1)c1nc2ccc(Cl)cc2s1 | > 15 µM | > 15 µM |
| CC(C)(C)c1ccc2c(c1)CN(Cc1ccc(Cl)cc1)CO2 | 0.255 µM | 0.0389 µM |
| CCN(CC)CCNC(=O)c1ccc2c(c1)sc1nc(-c3ccc(F)cc3)cn12 | 0.974 µM | 1.92 µM |
| CC(C)Nc1c2ccccc2nc2ccccc12 | 2.54 µM | 4.07 µM |
| O=C1CC(c2ccc(O)cc2)C2=C(CC(c3ccccc3Cl)CC2=O)N1 (configuration not stated) | 2.43 µM | 1.41 µM |
| OCCNc1nc(Nc2ccc(Cl)c(Cl)c2)nc2ccccc12 | > 15 µM | 4.32 µM |
| Cc1cc(Nc2ccc(C(C)C)cc2)n2ncnc2n1 | 0.502 µM | 0.961 µM |
| C=C(C)CCC(C)N1CCC(n2nccc2NC(=O)Nc2ccccc2Cl)CC1 (configuration not stated) | 3.7 µM | > 15 µM |

| SMILES | EC50 [1] | EC50 [2] |
| --- | --- | --- |
| O=C(N/N=C/c1cc(Br)cc([N+](=O)[O-])c1O)NC12CC3CC(CC(C3)C1)C2 | > 15 µM | 0.959 µM |
| CC(C)(C)c1ccc(C(=O)Nc2nc3ccccc3s2)cc1 | > 15 µM | > 15 µM |
| COc1ccc(NC2=C/C(=N/S(=O)(=O)c3ccc(C(C)C)cc3)c3ccccc3C2=O)cc1 | 0.499 µM | 0.458 µM |
| CCOC(=O)C(C)Oc1cccc2c(=O)n(CC(=O)Nc3ccccc3C(F)(F)F)ccc12 (configuration not stated) | > 15 µM | > 15 µM |
| COc1ccc2c(c1OC)C(=O)N1c3ccccc3N=C(c3ccc([N+](=O)[O-])cc3)CC21 (configuration not stated) | > 15 µM | > 15 µM |
| Cc1ccccc1-c1cnc(-c2cccnc2)nc1C1CCN(C(=O)CCCc2cccs2)CC1 | 5.76 µM | 4.53 µM |
| Nc1nc(Nc2ccc(Cl)c(Cl)c2)nc2ccccc12 | 2.22 µM | > 15 µM |
| C/C(=N/NC(N)=S)C1C(=O)c2ccccc2C1=O | > 15 µM | > 15 µM |
| COc1cc(C(=O)NCC(C)Oc2cccc(CN(C)Cc3cscn3)c2)cc(OC)c1OC (configuration not stated) | > 15 µM | > 15 µM |
| CCC(=O)NC(c1ccccc1Cl)c1ccc2cccnc2c1O (configuration not stated) | 2.19 µM | 2.91 µM |
| CC[n+]1c(C=C2C=CN(C)C=C2)ccc2cc(OC)ccc21 | > 15 µM | 2.05 µM |
| Oc1c2c(nc3cc(-c4ccc(Br)cc4)nn13)CCCC2 | > 15 µM | 0.632 µM |
| CCC(C)c1ccc(NC(=O)c2ccc(Br)o2)c(O)c1 (configuration not stated) | 1.93 µM | 2.57 µM |
| CCC(=O)Oc1cccc2ccc(/C=C/c3cc4c(cc3Cl)OCO4)nc12 | > 15 µM | > 15 µM |
| COc1ccccc1N1CCN(C(CNS(=O)(=O)c2ccc(Cl)cc2)c2cccnc2)CC1 (configuration not stated) | > 15 µM | 4.64 µM |
| CC(=O)Oc1ccc2ccccc2c1C(NC(=O)C(C)C)c1ccc(Cl)cc1 (configuration not stated) | 4.03 µM | 4.46 µM |
| COc1ccccc1CCN1COc2c(cc3c(C)c(C)c(=O)oc3c2C)C1 | 1.5 µM | 0.49 µM |
| O=C(CC1N=C2c3ccccc3N=C(SCc3ccc(F)cc3)N2C1=O)NCc1ccco1 (configuration not stated) | 8.19 µM | 5.69 µM |
| CCN(CC)CCOc1ccc2c(c1)C(=NO)c1cc(OCCN(CC)CC)ccc1-2 | 1.49 µM | 2.27 µM |
| COc1ccccc1Cn1ccnc1SCC(=O)Nc1cc(C)ccc1C | 1.97 µM | > 15 µM |
| CCOC(=O)c1cc(NC(=O)CSc2nc3ccccc3[nH]2)ccc1Cl | 2.17 µM | 3.22 µM |
| CC(C)CC(=O)NC(c1ccc(Cl)cc1)c1c(O)ccc2ccccc12 (configuration not stated) | 4.17 µM | 4.78 µM |
| COc1cccc(C(=O)NC(c2ccc(Cl)cc2)c2cc(Cl)c3cccnc3c2O)c1 (configuration not stated) | 2.01 µM | 1.66 µM |
| N=C(N/N=C\c1ccc(Br)cc1)N/N=C\c1ccc(Br)cc1 | 2.3 µM | > 15 µM |

| SMILES | EC50 [1] | EC50 [2] |
| --- | --- | --- |
| COc1ccc(N2CCN(C3CCCN(Cc4cccc(SC)c4)C3)CC2)cc1 (configuration not stated) | > 15 µM | > 15 µM |
| CSc1ccc(C2CC(=O)NC3=C2C(=O)CC(c2ccccc2Cl)C3)cc1 (configuration not stated) | 2.21 µM | 1.17 µM |
| O=S(=O)(NCC(c1cccnc1)N1CCN(c2ccccc2F)CC1)c1ccc(F)cc1 (configuration not stated) | > 15 µM | 5.33 µM |
| CCOC(=O)c1ccc(NC(=O)N2CCN(Cc3ccccc3)CC2)cc1 | > 15 µM | > 15 µM |
| CCOc1ccc(C(=O)Nc2cc(C)nn2-c2nc(C)c(CC)c(O)n2)cc1OCC | > 15 µM | > 15 µM |
| COc1ccc2cc3cc(C(=O)Nc4ccccc4N4CCN(C)CC4)sc3nc2c1 | > 15 µM | > 15 µM |
| COc1ccc2c(c1)C(=NN=C(N)N)c1cc(OC)ccc1-2 | 0.506 µM | 1.01 µM |
| COc1ccc(CN2CCN(CC(C)(C)C)C(CCO)C2)c(O)c1 (configuration not stated) | 7.57 µM | 3.73 µM |
| CC(=O)NC(c1ccc(Cl)cc1)c1ccc2cccnc2c1O (configuration not stated) | 1.93 µM | 2.15 µM |
| CCOC(=O)c1ccc2nc(C)cc(Nc3ccc(OC)cc3)c2c1 | 2.86 µM | > 15 µM |
| COc1ccc(N2CCN(CC(O)COc3ccc(C)cc3C(C)(C)C)CC2)cc1 (configuration not stated) | > 15 µM | > 15 µM |
| Cc1ccc(N2C(=O)CS(=O)(=O)C23C(=O)N(Cc2ccccc2Cl)c2ccccc23)cc1C (configuration not stated) | 1.33 µM | 2.43 µM |
| CC1CCN(Cc2c(O)ccc3ccccc23)CC1 | 0.368 µM | 0.492 µM |
| O=[N+]([O-])c1nonc1NCn1nnc2ccccc21 | 5.07 µM | 7.28 µM |
| CC[n+]1c(C=C2C=CN(C)C=C2)ccc2cc(C)ccc21 | 2.8 µM | 0.469 µM |
| COCCn1/c(=N/C(=O)COc2ccccc2)sc2cc(OC)ccc21 | > 15 µM | > 15 µM |
| Cc1cc(O)nc2nnc(SCC(=O)Nc3cccc(Cl)c3)n12 | > 15 µM | 7.29 µM |
| CCCc1cc(O)nc(-n2nc(C)cc2NC(=O)c2ccc(Cl)cc2)n1 | > 15 µM | > 15 µM |
| COC(=O)c1c(S(=O)(=O)N2CCCCCC2)sc2c1CCN(Cc1ccc(F)c(OC)c1)C2 | > 15 µM | > 15 µM |
| O=C1C(Nc2ccc(I)cc2)=C(N2CCOCC2)C(=O)c2ccccc21 | 0.256 µM | 0.181 µM |
| CCc1cccc2c(C#N)cn(Cc3ccc(Br)cc3)c12 | 3.67 µM | 4 µM |
| CCCCN(CCCC)C(=O)Cn1ccc(=N)c2ccccc21 | > 15 µM | > 15 µM |
| CCOc1ccc(-c2nc(NC(=O)c3cccc(S(C)(=O)=O)c3)sc2C)cc1 | > 15 µM | > 15 µM |
